{
  "source": "paper PMC10641236",
  "about": "“Influenza A virus replication has a stronger dependency on Raf/MEK/ERK signaling pathway activity than SARS-CoV-2” (Frontiers in Cellular and Infection Microbiology, 2023)",
  "key": {"[1]": {"tested_on": "MEK1/2 (ERK1/2 phosphorylation)", "assay": "IC50 determination in the absence of viral infection, TNF-α-stimulated cells, pERK/ERK ratio by WES", "format": "cell-based", "conditions": "Homo sapiens, TNF-α 30 min then 1 h treatment, no virus", "procedure": "Cells were lysed using cold modified RIPA buffer [0.24% (w/v) tris base (Sigma-Aldrich, St. Louis, Missouri, USA), 0.88% (w/v) NaCl (Carl Roth, Karlsruhe, Germany), 0.2% (v/v) 500 mM ethylenediaminetetraacetic acid (EDTA) (Sigma-Aldrich, St. Louis, Missouri, USA), 1% (v/v) Triton X-100 (Sigma-Aldrich, St. Louis, Missouri, USA), 0.5% (w/v) sodium deoxycholate (Sigma-Aldrich, St. Louis, Missouri, USA), 0.1% (w/v) sodium dodecyl sulfate (SDS) (Carl Roth, Karlsruhe, Germany), 10% (v/v) glycerol (Carl Roth, Karlsruhe, Germany), 0.05% phenylmethylsulfonyl fluoride (PMSF) (Carl Roth, Karlsruhe, Germany), 0.01% Benzonase® Nuclease (Sigma-Aldrich, St. Louis, Missouri, USA), protease inhibitor cocktail (Roche, Basel, Switzerland), and phosphatase inhibitor cocktail (Roche, Basel, Switzerland) in water]. Determination of the protein concentration was performed using the Pierce™ BCA Protein Assay Kit (Thermo Fisher Scientific Inc., Waltham, MA, USA) according to the manufacturer’s instructions. The samples were analyzed by Wes™ using a total protein concentration of 0.25–0.5 µg/µL for each sample, the Jess/Wes Separation kit (12–230 kDa), primary antibodies against ERK1/2, p44/42 MAPK (137F5) Rabbit mAb (Cell Signaling Technology, Danvers, MA, USA, Cat. No. 4695S) and phospho-ERK1/2 (pERK1/2), Phospho-p44/42 MAPK (Erk1/2) (Thr202/Tyr204) (D13.14.4E), XP® Rabbit mAb (Cell Signaling Technology, Danvers, MA, USA, Cat. no. 4370S) in a 1:50 dilution, anti-Influenza A virus Nucleoprotein (NP) antibody (rabbit MAb) (Sino Biological, Beijing, China Cat.no 40208-R010) in a 1:150 dilution, SARS-CoV-2 nucleocapsid protein antibody (ProSci Inc., Poway, CA, USA, Cat. no. 35-580) in a 1:100 dilution, the anti-goat, anti-rabbit, and anti-mouse detection modules, and the EZ Standard Pack 1 (12–230 kDa), according to the manufacturer’s instructions. Analysis of the obtained data was performed using the Compass for SW 4.1.0 software, Microsoft Excel, and the GraphPad Prism 9.2.0 software. Ratios were calculated from the area under the curve of the respective detected signals.\nTwenty-four hours before the experiment, the growth medium was exchanged to medium with respective FBS or BSA concentration. Then, cells were stimulated by the addition of tumor necrosis factor alpha (TNF-α) (Sigma-Aldrich, St. Louis, Missouri, USA) for 30 min at 37°C, 5% CO2, followed by treatment with different zapnometinib concentrations and a DMSO (solvent) control for 1 h. For determination of the IC50 value in cells infected with IAV PR8 or SARS-CoV-2, cells were infected with the respective virus and treated with zapnometinib for 24 h as described in the “Virus yield reduction assay” section. After incubation, cell lysates were prepared, and the samples were analyzed by WES™ as described in the “Preparation of cell lysates and WES™ analysis” section. The pERK/ERK ratio was calculated and normalized to the solvent control. IC50 values were determined using the “log(inhibitor) vs. response -Variable slope (four parameters)” equation in GraphPad Prism version 9.4.0."}, "TMPRSS2": {"tested_on": "TMPRSS2", "assay": "TMPRSS2 expression by flow cytometry", "format": "cell-based, Homo sapiens", "conditions": "Caco-2 cells, 24 h", "procedure": "For flow cytometry analysis, 6 × 10^5 Caco-2 cells were seeded per well in six-well plates (Greiner Bio-One, Kremsmünster, Austria) and incubated for 24 h at 37°C, 5% CO2. Treatment with zapnometinib or a solvent control (1% DMSO) in medium containing 0.2% BSA was applied for 24 h. A single-cell solution was prepared using TrypLE reagent (Thermo Fisher Scientific, Waltham, MA, USA). Prior to staining, cells were treated with an FcR blocking reagent (Miltenyi Biotec, Bergisch Gladbach, Germany) for 10 min at 4°C. The cells were then stained with either a PE Mouse IgG1Isotype control antibody (BioLegend, San Diego, CA, USA) or a PE anti-human TMPRSS2 Antibody (BioLegend, San Diego, CA, USA), followed by a live-dead staining using the LIVE/DEAD™ Fixable Far Red Dead Cell Stain Kit (Thermo Fisher Scientific, Waltham, MA, USA). Cells were analyzed using the BD FACSCanto II flow cytometer (Becton Dickinson, Franklin Lakes, New Jersey, USA) and the FlowJo software (Becton Dickinson, Franklin Lakes, New Jersey, USA)."}, "ERK2": {"tested_on": "ERK2", "assay": "ERK2 content in cell lysates by WES", "format": "cell-based, Homo sapiens", "conditions": "Caco-2 and Calu-3 cell lysates, 24 h of treatment", "procedure": "Cells were lysed using cold modified RIPA buffer [0.24% (w/v) tris base (Sigma-Aldrich, St. Louis, Missouri, USA), 0.88% (w/v) NaCl (Carl Roth, Karlsruhe, Germany), 0.2% (v/v) 500 mM ethylenediaminetetraacetic acid (EDTA) (Sigma-Aldrich, St. Louis, Missouri, USA), 1% (v/v) Triton X-100 (Sigma-Aldrich, St. Louis, Missouri, USA), 0.5% (w/v) sodium deoxycholate (Sigma-Aldrich, St. Louis, Missouri, USA), 0.1% (w/v) sodium dodecyl sulfate (SDS) (Carl Roth, Karlsruhe, Germany), 10% (v/v) glycerol (Carl Roth, Karlsruhe, Germany), 0.05% phenylmethylsulfonyl fluoride (PMSF) (Carl Roth, Karlsruhe, Germany), 0.01% Benzonase® Nuclease (Sigma-Aldrich, St. Louis, Missouri, USA), protease inhibitor cocktail (Roche, Basel, Switzerland), and phosphatase inhibitor cocktail (Roche, Basel, Switzerland) in water]. Determination of the protein concentration was performed using the Pierce™ BCA Protein Assay Kit (Thermo Fisher Scientific Inc., Waltham, MA, USA) according to the manufacturer’s instructions. […] Ratios were calculated from the area under the curve of the respective detected signals."}, "Caco-2 cells": {"tested_on": "Caco-2 cells", "format": "cell-based", "conditions": "human, 24 h", "procedure": "(§1) Per well, 2.5 × 10^4 Caco-2 cells or 4 × 10^4 Calu-3 cells were seeded in 96-well plates (Greiner Bio-One, Kremsmünster, Austria) and incubated for 24 h at 37°C, 5% CO2. Cell viability was assessed using a WST-1 assay according to the manufacturer’s recommendations (Roche, Basel, Switzerland). For reference, cell viability was assessed at 0 h and after 24 h of treatment with different concentrations of zapnometinib in medium containing 1% DMSO. The measured cell viability was normalized to the 0-h control. The CC50 value was determined using the “Sigmoidal, 4PL, X is log(concentration)” equation in GraphPad Prism."}, "Calu-3 cells": {"tested_on": "Calu-3 cells", "format": "cell-based", "conditions": "human, 24 h", "procedure": "as §1"}, "IAV RB1": {"tested_on": "IAV RB1", "design": "method as in Laure et al., 2020", "conditions": "IAV RB1, medium containing 0.2% BSA; ref Laure et al., 2020; cited from earlier work"}, "SARS-CoV-2": {"tested_on": "SARS-CoV-2", "format": "cell-based", "conditions": "100 µM, Caco-2 cells, MOI 4, 10 h"}},
  "data": [
    {"smiles": "O=C(O)c1ccc(F)c(F)c1Nc1ccc(I)cc1Cl", "note": "[zapnometinib, 2-(2-chloro-4-iodophenylamino)-N-3,4-difluoro benzoic acid]", "values": [
      {"measurement": "IC50", "setting": "[1]; Caco-2, Caco-2 cells, 0% FBS", "value": 0.04, "unit": "µM"},
      {"measurement": "IC50", "setting": "[1]; Caco-2, Caco-2 cells, 0.2% BSA", "value": 4.32, "unit": "µM"},
      {"measurement": "IC50", "setting": "[1]; Caco-2, Caco-2 cells, 5% FBS", "value": 4.46, "unit": "µM"},
      {"measurement": "IC50", "setting": "[1]; Caco-2, Caco-2 cells, 10% FBS", "value": 9.15, "unit": "µM"},
      {"measurement": "IC50", "setting": "[1]; Calu-3, Calu-3 cells, 0% FBS", "value": 0.06, "unit": "µM"},
      {"measurement": "IC50", "setting": "[1]; Calu-3, Calu-3 cells, 0.2% BSA", "value": 5.33, "unit": "µM"},
      {"measurement": "IC50", "setting": "[1]; Calu-3, Calu-3 cells, 5% FBS", "value": 6.64, "unit": "µM"},
      {"measurement": "IC50", "setting": "[1]; Calu-3, Calu-3 cells, 10% FBS", "value": 8.25, "unit": "µM"},
      {"measurement": "increase of TMPRSS2 expression", "setting": "TMPRSS2; 50 µM", "value": 14, "unit": "%"},
      {"measurement": "increase of TMPRSS2 expression", "setting": "TMPRSS2; 100 µM", "value": 17, "unit": "%"},
      {"measurement": "effect on ERK2 content in the cells", "setting": "ERK2", "value": "does not affect"},
      {"measurement": "CC50", "setting": "Caco-2 cells", "value": 360, "unit": "µM"},
      {"measurement": "CC50", "setting": "Calu-3 cells", "value": 303, "unit": "µM"},
      {"measurement": "EC50", "setting": "IAV RB1", "value": 6.36, "unit": "µM"},
      {"measurement": "Infected cells (SARS-CoV-2 N positive) normalized to solvent control", "setting": "SARS-CoV-2", "value": 18.3, "unit": "%"},
      {"measurement": "amount of SARS-CoV-2 N", "setting": "SARS-CoV-2", "value": "reduced"},
      {"measurement": "distribution of the SARS-CoV-2 N", "setting": "SARS-CoV-2", "value": "did not change"}
    ]}
  ]
}
